# Reference: patent US10785975B2, “Water and feed antimicrobial preservative” (priority 2009, dated 2020)
# Like-named read-outs stand apart in the source and are kept apart here.
# Key:
# Assay type in all cases: cell-based
# Salmonella typhimurium [1] = experiment: Example 1: effect of pH buffering of acetic and propionic acid on antimicrobial activity in water
# Procedure: Propionic and acetic acids were buffered with ammonium hydroxide to pHs ranging from 1 to 7. Acid contents of the buffered solutions were determined by a weight to weight ratio calculation to obtain the same acid content in the test solutions. […] The pHs of the deionized water solutions were recorded and any problems with solubility noted.
# (§1) 100 ul of a nutrient broth culture of Salmonella typhimurium was added to each dilution tube. After addition, tubes were vortexed and allowed to stand. At 4 and 24 hours after addition of the inoculum, 100 ul of the solution was plated on Standard Plate agar (triplicate plates). Plates were incubated at 37° C. for 24 hours prior to enumeration. The minimum effective dose of each acid was determined by linear regression.
# Salmonella typhimurium [2] = experiment: Example 3: buffered organic acid mixtures with pelargonic acid in water
# Procedure: Procedure: Propionic and acetic acids were buffered with ammonium hydroxide to a pH of 3 and combined with pelargonic in the ratios above. Acid content of the buffered solutions was determined by weight to weight ratio calculation (weight of acid/total weight of buffered solution) and adjusted to provide an equal acid value for each treatment. […] The pHs of the deionized water solutions were recorded and any problems with solubility noted.
# as §1
# Salmonella typhimurium [3] = experiment: Study 4: pelargonic acid (1-20%) in buffered propionic or acetic acid in water
# Procedure: Propionic and acetic acids were buffered with ammonium hydroxide to a pH of 3 and combined with pelargonic in the ratios listed. Acid content of the buffered solutions was determined by weight to weight ratio calculation (weight of acid/total weight of buffered solution) and adjusted to provide an equal acid value for each treatment. […] The pHs of the deionized water solutions were recorded and any problems with solubility noted.
# 100 ul of a nutrient broth culture of Salmonella typhimurium was added to each dilution tube. After addition, tubes were vortexed and allowed to stand. At 4 and 24 hours after addition of the inoculum, 100 ul of the solution was plated on Standard Plate agar (triplicate plates). Plates were incubated at 37° C. for 24 hours prior to enumeration.
# Salmonella typhimurium [4] = experiment: Example 2: effect of carbon chain length of individual organic acids on antimicrobial activity in water; parameters: MIC at 4 HR / MIC at 24 FIR: unit not given here; conditions: for MIC at 4 HR / MIC at 24 FIR: Minimum Inhibitory Concentration of Organic Acids against Salmonella, by linear regression; for MIC at 24 FIR: 24 hours; for killing at […] / killing at 0.05 % / killing at 0.075 % / killing at 0.1 %: Salmonella enterica, TYPHIMURIUM
# Procedure: 100 ul of a nutrient broth culture of Salmonella typhimurium was added to each dilution tube. After addition, tubes were vortexed and allowed to stand. At 4 and 24 hours after addition of the inoculum, 100 ul of the solution was plated on agar (triplicate plates). Plates were incubated at 37° C. for 24 hours prior to enumeration. The minimum effective dose of each acid was be determined by linear regression: […]
# [5] = Product Conc. 0.025 (% acid solution in water), 4 hr
# [6] = Product Conc. 0.025 (% acid solution in water), 24 hr
# [7] = Product Conc. 0.05 (% acid solution in water), 4 hr
# [8] = Product Conc. 0.05 (% acid solution in water), 24 hr
# [9] = Product Conc. 0.075 (% acid solution in water), 4 hr
# [10] = Product Conc. 0.075 (% acid solution in water), 24 hr
# [11] = Product Conc. 0.1 (% acid solution in water), 4 hr
# [12] = Product Conc. 0.1 (% acid solution in water), 24 hr
# [13] = Product Conc. 0.025 (% total acid solution in water)
# [14] = Product Conc. 0.05 (% total acid solution in water)
# [15] = Product Conc. 0.075 (% total acid solution in water)
# [16] = Product Conc. 0.1 (% total acid solution in water)
# [17] = Product Concentration 0.025 (% total acid solution in water)
# [18] = Product Concentration 0.05 (% total acid solution in water)
# [19] = Product Conc. 0.025 (% acid solution in water), 4 hr, read-out: Salmonella at time Interval 4 hr % reduction
# [20] = Product Conc. 0.025 (% acid solution in water), 24 hr, read-out: Salmonella at time Interval 24 hr % reduction
# [21] = Product Conc. 0.05 (% acid solution in water), 4 hr, read-out: Salmonella at time Interval 4 hr % reduction
# [22] = Product Conc. 0.05 (% acid solution in water), 24 hr, read-out: Salmonella at time Interval 24 hr % reduction
# [23] = Product Conc. 0.075 (% acid solution in water), 4 hr, read-out: Salmonella at time Interval 4 hr % reduction
# [24] = Product Conc. 0.075 (% acid solution in water), 24 hr, read-out: Salmonella at time Interval 24 hr % reduction
# [25] = Product Conc. 0.1 (% acid solution in water), 4 hr, read-out: Salmonella at time Interval 4 hr % reduction
# [26] = Product Conc. 0.1 (% acid solution in water), 24 hr, read-out: Salmonella at time Interval 24 hr % reduction
smiles,measurement,setting,value
"CC(=O)O [Acetic pH 3, Acetic acid]",MIC at 4 Hr,"Salmonella typhimurium [1]; Minimum Inhibitory Concentrations, by linear regression over 0.025-0.1% acid solutions, 4 hr, pH 3",0.176
same,MIC at 24 HR,"Salmonella typhimurium [1]; Minimum Inhibitory Concentrations, by linear regression over 0.025-0.1% acid solutions, 24 hr, pH 3",0.073
same,Salmonella at time Interval 4 hr % reduction,Salmonella typhimurium [1]; [5],27%
same,Salmonella at time Interval 4 hr cfu/g,Salmonella typhimurium [1]; [5],1100 cfu/g
same,Salmonella at time Interval 24 hr % reduction,Salmonella typhimurium [1]; [6],75%
same,Salmonella at time Interval 24 hr cfu/g,Salmonella typhimurium [1]; [6],300 cfu/g
same,Salmonella at time Interval 4 hr % reduction,Salmonella typhimurium [1]; [7],44%
same,Salmonella at time Interval 4 hr cfu/g,Salmonella typhimurium [1]; [7],843 cfu/g
same,Salmonella at time Interval 24 hr % reduction,Salmonella typhimurium [1]; [8],90%
same,Salmonella at time Interval 24 hr cfu/g,Salmonella typhimurium [1]; [8],117 cfu/g
same,Salmonella at time Interval 4 hr % reduction,Salmonella typhimurium [1]; [9],38%
same,Salmonella at time Interval 4 hr cfu/g,Salmonella typhimurium [1]; [9],927 cfu/g
same,Salmonella at time Interval 24 hr % reduction,Salmonella typhimurium [1]; [10],92%
same,Salmonella at time Interval 24 hr cfu/g,Salmonella typhimurium [1]; [10],90 cfu/g
same,Salmonella at time Interval 4 hr % reduction,Salmonella typhimurium [1]; [11],42%
same,Salmonella at time Interval 4 hr cfu/g,Salmonella typhimurium [1]; [11],873 cfu/g
same,Salmonella at time Interval 24 hr % reduction,Salmonella typhimurium [1]; [12],96%
same,Salmonella at time Interval 24 hr cfu/g,Salmonella typhimurium [1]; [12],43 cfu/g
same,Salmonella at time Interval 4 hr % reduction,Salmonella typhimurium [2]; [13],38%
same,Salmonella at time Interval 4 hr cfu/g,Salmonella typhimurium [2]; [13],943 cfu/g
same,Salmonella at time Interval 24 hr % reduction,Salmonella typhimurium [2]; [13],92%
same,Salmonella at time Interval 24 hr cfu/g,Salmonella typhimurium [2]; [13],123 cfu/g
same,Salmonella at time Interval 4 hr % reduction,Salmonella typhimurium [2]; [14],34%
same,Salmonella at time Interval 4 hr cfu/g,Salmonella typhimurium [2]; [14],1007 cfu/g
same,Salmonella at time Interval 24 hr % reduction,Salmonella typhimurium [2]; [14],92%
same,Salmonella at time Interval 24 hr cfu/g,Salmonella typhimurium [2]; [14],120 cfu/g
same,Salmonella at time Interval 4 hr % reduction,Salmonella typhimurium [2]; [15],34%
same,Salmonella at time Interval 4 hr cfu/g,Salmonella typhimurium [2]; [15],1007 cfu/g
same,Salmonella at time Interval 24 hr % reduction,Salmonella typhimurium [2]; [15],95%
same,Salmonella at time Interval 24 hr cfu/g,Salmonella typhimurium [2]; [15],77 cfu/g
same,Salmonella at time Interval 4 hr % reduction,Salmonella typhimurium [2]; [16],36%
same,Salmonella at time Interval 4 hr cfu/g,Salmonella typhimurium [2]; [16],967 cfu/g
same,Salmonella at time Interval 24 hr % reduction,Salmonella typhimurium [2]; [16],95%
same,Salmonella at time Interval 24 hr cfu/g,Salmonella typhimurium [2]; [16],83 cfu/g
same,Salmonella at time Interval 4 hr % reduction,Salmonella typhimurium [3]; [17],29%
same,Salmonella at time Interval 4 hr cfu/g,Salmonella typhimurium [3]; [17],1000 cfu/g
same,Salmonella at time Interval 24 hr % reduction,Salmonella typhimurium [3]; [17],96%
same,Salmonella at time Interval 24 hr cfu/g,Salmonella typhimurium [3]; [17],60 cfu/g
same,Salmonella at time Interval 4 hr % reduction,Salmonella typhimurium [3]; [18],32%
same,Salmonella at time Interval 4 hr cfu/g,Salmonella typhimurium [3]; [18],950 cfu/g
same,Salmonella at time Interval 24 hr % reduction,Salmonella typhimurium [3]; [18],99%
same,Salmonella at time Interval 24 hr cfu/g,Salmonella typhimurium [3]; [18],20 cfu/g
CCCCCCC(=O)O [Oenanthic acid],MIC at 4 HR,Salmonella typhimurium [4]; 4 hr,0.075
same,MIC at 24 FIR,Salmonella typhimurium [4],0.063
same,Salmonella at time Interval 4 hr % reduction,Salmonella typhimurium [4]; [5],31%
same,Salmonella at time Interval 4 hr cfu/g,Salmonella typhimurium [4]; [5],1103 cfu/g
same,Salmonella at time Interval 24 hr % reduction,Salmonella typhimurium [4]; [6],99%
same,Salmonella at time Interval 24 hr cfu/g,Salmonella typhimurium [4]; [6],10 cfu/g
same,Salmonella at time Interval 4 hr % reduction,Salmonella typhimurium [4]; [7],100%
same,Salmonella at time Interval 4 hr cfu/g,Salmonella typhimurium [4]; [7],0 cfu/g
same,Salmonella at time Interval 24 hr % reduction,Salmonella typhimurium [4]; [8],100%
same,Salmonella at time Interval 24 hr cfu/g,Salmonella typhimurium [4]; [8],0 cfu/g
same,Salmonella at time Interval 4 hr % reduction,Salmonella typhimurium [4]; [9],100%
same,Salmonella at time Interval 4 hr cfu/g,Salmonella typhimurium [4]; [9],0 cfu/g
same,Salmonella at time Interval 24 hr % reduction,Salmonella typhimurium [4]; [10],100%
same,Salmonella at time Interval 24 hr cfu/g,Salmonella typhimurium [4]; [10],0 cfu/g
same,Salmonella at time Interval 4 hr % reduction,Salmonella typhimurium [4]; [11],100%
same,Salmonella at time Interval 4 hr cfu/g,Salmonella typhimurium [4]; [11],0 cfu/g
same,Salmonella at time Interval 24 hr % reduction,Salmonella typhimurium [4]; [12],100%
same,Salmonella at time Interval 24 hr cfu/g,Salmonella typhimurium [4]; [12],0 cfu/g
"CCCCCCCCC(=O)O [Pelargonic acid/KOH, Pelargonic acid]",Salmonella at time Interval 4 hr cfu/g,Salmonella typhimurium [4]; [5],7 cfu/g
same,Salmonella at time Interval 24 hr cfu/g,Salmonella typhimurium [4]; [6],0 cfu/g
same,Salmonella at time Interval 4 hr cfu/g,Salmonella typhimurium [4]; [7],0 cfu/g
same,Salmonella at time Interval 24 hr cfu/g,Salmonella typhimurium [4]; [8],0 cfu/g
same,Salmonella at time Interval 4 hr cfu/g,Salmonella typhimurium [4]; [9],0 cfu/g
same,Salmonella at time Interval 24 hr cfu/g,Salmonella typhimurium [4]; [10],0 cfu/g
same,Salmonella at time Interval 4 hr cfu/g,Salmonella typhimurium [4]; [11],0 cfu/g
same,Salmonella at time Interval 24 hr cfu/g,Salmonella typhimurium [4]; [12],0 cfu/g
same,killing at […],Salmonella typhimurium [4]; [19],100%
same,killing at […],Salmonella typhimurium [4]; [20],100%
same,killing at 0.05 %,Salmonella typhimurium [4]; [21],100%
same,killing at 0.05 %,Salmonella typhimurium [4]; [22],100%
same,killing at 0.075 %,Salmonella typhimurium [4]; [23],100%
same,killing at 0.075 %,Salmonella typhimurium [4]; [24],100%
same,killing at 0.1 %,Salmonella typhimurium [4]; [25],100%
same,killing at 0.1 %,Salmonella typhimurium [4]; [26],100%
CCCCC(=O)O [Valeric acid],MIC at 4 HR,Salmonella typhimurium [4]; 4 hr,0.174
same,MIC at 24 FIR,Salmonella typhimurium [4],0.070
same,Salmonella at time Interval 4 hr cfu/g,Salmonella typhimurium [4]; [5],1233 cfu/g
same,Salmonella at time Interval 24 hr cfu/g,Salmonella typhimurium [4]; [6],533 cfu/g
same,Salmonella at time Interval 4 hr cfu/g,Salmonella typhimurium [4]; [7],1267 cfu/g
same,Salmonella at time Interval 24 hr cfu/g,Salmonella typhimurium [4]; [8],73 cfu/g
same,Salmonella at time Interval 4 hr cfu/g,Salmonella typhimurium [4]; [9],990 cfu/g
same,Salmonella at time Interval 24 hr cfu/g,Salmonella typhimurium [4]; [10],37 cfu/g
same,Salmonella at time Interval 4 hr cfu/g,Salmonella typhimurium [4]; [11],657 cfu/g
same,Salmonella at time Interval 24 hr cfu/g,Salmonella typhimurium [4]; [12],17 cfu/g
same,killing at […],Salmonella typhimurium [4]; [19],23%
same,killing at […],Salmonella typhimurium [4]; [20],69%
same,killing at 0.05 %,Salmonella typhimurium [4]; [21],21%
same,killing at 0.05 %,Salmonella typhimurium [4]; [22],96%
same,killing at 0.075 %,Salmonella typhimurium [4]; [23],38%
same,killing at 0.075 %,Salmonella typhimurium [4]; [24],98%
same,killing at 0.1 %,Salmonella typhimurium [4]; [25],59%
same,killing at 0.1 %,Salmonella typhimurium [4]; [26],99%
